The subject of data set [1] is Entamoeba histolytica. The data set can be described thus: Antiamoebic activity against Entamoeba histolytica HM-1:IMSS trophozoites after 72 hrs by microdilution method. The class given is functional, organism-based. (In broth dilution the organism is exposed to a series of concentrations in liquid medium.)
The nature of data set [2]: Cytotoxicity against human HepG2 cells assessed as cell viability at 3.13 uM after 48 hrs by MTT assay. Format: cell-based. As to conditions: read-out: Activity. Background: Tetrazolium dyes change colour on reduction, which living cells bring about.
In data set [3] the test system is HepG2. Briefly: Cytotoxicity against human HepG2 cells assessed as cell viability at 50 to 100 uM after 48 hrs by MTT assay. As to conditions: hepg2, 48 h. The class given is cell-based.
The nature of data set [4]: Cytotoxicity against human HepG2 cells assessed as cell viability at 100 uM after 48 hrs by MTT assay. As to conditions: read-out: Activity. Format: cell-based.
The nature of data set [5]: Cytotoxicity against human HepG2 cells assessed as cell viability up to 25 uM after 48 hrs by MTT assay. The class given is cell-based. As to conditions: read-out: Activity.
In data set [6] the test system is HepG2. The data set can be described thus: Cytotoxicity against human HepG2 cells after 48 hrs by MTT assay. The class given is cell-based. As to conditions: for IC50: Homo sapiens, HepG2, 48 h; for Activity: human, hepg2, 48 h.
The nature of data set [7]: Safety index, ratio of IC50 for human HepG2 cells to IC50 for Entamoeba histolytica HM-1:IMSS trophozoites.

Each structure is given as a SMILES string.

We go through 25 compounds from ChEMBL document CHEMBL2384949, “Nitroimidazolyl hydrazones are better amoebicides than their cyclized 1,3,4-oxadiazoline analogues: In vitro studies and Lipophilic efficiency analysis” (Eur J Med Chem, 2013).

Take `Cc1ncc([N+](=O)[O-])n1CC(=O)N/N=C/c1ccc(C(C)C)cc1`: the IC50 in data set [1] (read-out: IC50) and in data set [1] (read-out: pIC50 (converted)) was 3.68 µM each time.

As to `COc1ccc(/C=N/NC(=O)Cn2c([N+](=O)[O-])cnc2C)cc1`, in data set [2], the viability at 48 h, 3.13 µM stood at 98%. The Activity result in data set [3] is “Non-toxic”; in data set [6] it was “Dose-dependent effect”. Besides, in data set [4], the viability at 48 h, 100 µM is not below 68%. Besides, in data set [5], the viability at 48 h is not below 88%. Moreover, the IC50 in data set [6] is more than 100 µM; in data set [1] (read-out: IC50) it was 0.81 µM; in data set [1] (read-out: pIC50 (converted)), 0.811 µM. In data set [7] (HepG2 cells), the selectivity ratio is more than 123.

In the case of `Cc1ccc(/C=N/NC(=O)Cn2c([N+](=O)[O-])cnc2C)cc1`, the viability at 48 h, 3.13 µM in data set [2] is 98%. Besides, the results for the Activity result in data set [3] and in data set [6] were “Non-toxic” and “Dose-dependent effect”, respectively. Further, in data set [4], the viability at 48 h, 100 µM was not below 68%. Moreover, the viability at 48 h in data set [5] is not below 88%. Further, the IC50 in data set [6] is more than 100 µM; in data set [1] (read-out: IC50), 0.96 µM; in data set [1] (read-out: pIC50 (converted)) it was 0.962 µM. Besides, the selectivity ratio in data set [7] (HepG2 cells) was more than 104.

Regarding `Cc1ncc([N+](=O)[O-])n1CC(=O)N/N=C/c1cccc(Cl)c1`, the IC50 is 3.82 µM in data set [1] (read-out: IC50) and 3.83 µM in data set [1] (read-out: pIC50 (converted)).

As for `Cc1ncc([N+](=O)[O-])n1CC(=O)N/N=C/c1ccccc1Cl`, the IC50 in data set [1] (read-out: IC50) and in data set [1] (read-out: pIC50 (converted)) was 3.86 µM each time.

For `Cc1ncc([N+](=O)[O-])n1CC(=O)N/N=C/c1ccc(Cl)cc1`, the IC50 in data set [1] (read-out: IC50) was 3.64 µM; in data set [1] (read-out: pIC50 (converted)), 3.65 µM.

As to `COc1cc(C2OC(Cn3c([N+](=O)[O-])cnc3C)=NN2C(C)=O)cc(OC)c1OC` (stereo not drawn), the IC50 in data set [1] (read-out: IC50) and in data set [1] (read-out: pIC50 (converted)) was 5.82 µM throughout.

In the case of `CCc1ccc(/C=N/NC(=O)Cn2c([N+](=O)[O-])cnc2C)cc1`, the viability at 48 h, 3.13 µM in data set [2] is 98%. Further, the Activity result in data set [3] is recorded as “Non-toxic”; in data set [6], “Dose-dependent effect”. Also, in data set [4], the viability at 48 h, 100 µM was not below 68%. In addition, the viability at 48 h in data set [5] is not below 88%. The IC50 in data set [6] is more than 100 µM; in data set [1] (read-out: IC50), 1.32 µM; in data set [1] (read-out: pIC50 (converted)), 1.32 µM. Also, the selectivity ratio in data set [7] (HepG2 cells) is more than 75.8.

Consider `Cc1ccc(C)c(/C=N/NC(=O)Cn2c([N+](=O)[O-])cnc2C)c1`, for which the IC50 in data set [1] (read-out: IC50) and in data set [1] (read-out: pIC50 (converted)) was 2.58 µM in each case.

On to `CCOc1ccc(/C=N/NC(=O)Cn2c([N+](=O)[O-])cnc2C)cc1`, for which the viability at 48 h, 3.13 µM in data set [2] came to 98%. Besides, the values for the Activity result in data set [3] and in data set [6] were “Non-toxic” and “Dose-dependent effect”, respectively. In addition, the viability at 48 h, 100 µM in data set [4] was not below 68%. Besides, in data set [5], the viability at 48 h was not below 88%. Besides, the figures for the IC50 in data set [6], in data set [1] (read-out: IC50) and in data set [1] (read-out: pIC50 (converted)) were more than 100 µM, 1.65 µM and 1.65 µM, respectively. In data set [7] (HepG2 cells), the selectivity ratio is more than 60.6.

Regarding `COc1ccc(OC)c(/C=N/NC(=O)Cn2c([N+](=O)[O-])cnc2C)c1`, the IC50 in data set [1] (read-out: IC50) and in data set [1] (read-out: pIC50 (converted)) was 2.64 µM throughout.

As to `COc1cc(/C=N/NC(=O)Cn2c([N+](=O)[O-])cnc2C)cc(OC)c1OC`, the IC50 in data set [1] (read-out: IC50) and in data set [1] (read-out: pIC50 (converted)) was 4.12 µM each time.

Consider `CC(=O)N1N=C(Cn2c([N+](=O)[O-])cnc2C)OC1c1ccccc1` (stereo not drawn), for which the IC50 in data set [1] (read-out: IC50) is 9.82 µM; in data set [1] (read-out: pIC50 (converted)), 9.84 µM.

With `CC(=O)N1N=C(Cn2c([N+](=O)[O-])cnc2C)OC1c1ccccc1Cl` (stereo not drawn), the IC50 is 6.84 µM in data set [1] (read-out: IC50) and 6.85 µM in data set [1] (read-out: pIC50 (converted)).

`CC(=O)N1N=C(Cn2c([N+](=O)[O-])cnc2C)OC1c1cccc(Cl)c1` (stereo not drawn): the IC50 in data set [1] (read-out: IC50) and in data set [1] (read-out: pIC50 (converted)) was 6.32 µM throughout.

As for `CC(=O)N1N=C(Cn2c([N+](=O)[O-])cnc2C)OC1c1ccc(Cl)cc1` (stereo not drawn), the IC50 in data set [1] (read-out: IC50) was 5.4 µM; in data set [1] (read-out: pIC50 (converted)), 5.41 µM.

Consider `CC(=O)N1N=C(Cn2c([N+](=O)[O-])cnc2C)OC1c1ccc(C)cc1` (stereo not drawn), for which the IC50 in data set [1] (read-out: IC50) and in data set [1] (read-out: pIC50 (converted)) was 2.48 µM each time.

Turning to `CCc1ccc(C2OC(Cn3c([N+](=O)[O-])cnc3C)=NN2C(C)=O)cc1` (stereo not drawn), the IC50 in data set [1] (read-out: IC50) and in data set [1] (read-out: pIC50 (converted)) was 2.62 µM each time.

Take `CC(=O)N1N=C(Cn2c([N+](=O)[O-])cnc2C)OC1c1cc(C)ccc1C` (stereo not drawn): the results for the IC50 in data set [1] (read-out: IC50) and in data set [1] (read-out: pIC50 (converted)) were 4.38 µM and 4.39 µM, respectively.

Turning to `CC(=O)N1N=C(Cn2c([N+](=O)[O-])cnc2C)OC1c1ccc(C(C)C)cc1` (stereo not drawn), the figures for the IC50 in data set [1] (read-out: IC50) and in data set [1] (read-out: pIC50 (converted)) were 4.88 µM and 4.89 µM, respectively.

`COc1ccc(C2OC(Cn3c([N+](=O)[O-])cnc3C)=NN2C(C)=O)cc1` (stereo not drawn): the IC50 in data set [1] (read-out: IC50) and in data set [1] (read-out: pIC50 (converted)) was 2.18 µM each time.

With `CCOc1ccc(C2OC(Cn3c([N+](=O)[O-])cnc3C)=NN2C(C)=O)cc1` (stereo not drawn), the IC50 in data set [1] (read-out: IC50) and in data set [1] (read-out: pIC50 (converted)) was 2.32 µM in each case.

With `COc1ccc(OC)c(C2OC(Cn3c([N+](=O)[O-])cnc3C)=NN2C(C)=O)c1` (stereo not drawn), the IC50 in data set [1] (read-out: IC50) and in data set [1] (read-out: pIC50 (converted)) was 4.62 µM throughout.

For `Cc1ncc([N+](=O)[O-])n1CC(=O)N/N=C/c1ccccc1`, the IC50 in data set [1] (read-out: IC50) is 4.28 µM; in data set [1] (read-out: pIC50 (converted)), 4.29 µM.

`Cc1ncc([N+](=O)[O-])n1CCO` [METRONIDAZOLE]: the viability at 48 h, 3.13 µM in data set [2] was 98%. For the same compound, the Activity result in data set [3] is on record as “Non-toxic”. Also, the viability at 48 h, 100 µM in data set [4] was not below 68%. Besides, the viability at 48 h in data set [5] is not below 88%. In data set [6], the IC50 was more than 100 µM and the Activity result was “Dose-dependent effect”. Moreover, the selectivity ratio in data set [7] (hepg2) was more than 55.5.
